Consider five molecules from patent publication US7939052B2, “Method of measuring the biological activity of an urotensin II receptor” (priority 2005, dated 2011).

As usually defined, the pA2 is the negative logarithm of the molar antagonist concentration that doubles the agonist concentration needed for the same response.

Entries after “also recorded” stand apart in the source; their conditions may differ. Residues, ends and D or L forms follow the SMILES beside them.

Assay [1] concerns the target T1, urotensin II receptor (Rattus norvegicus, UniProt P49684).
T1 construct: from tissue; host or cells: whole animal: male Sprague-Dawley rats (Charles River), in vivo
T1 sequence (P49684 1-386): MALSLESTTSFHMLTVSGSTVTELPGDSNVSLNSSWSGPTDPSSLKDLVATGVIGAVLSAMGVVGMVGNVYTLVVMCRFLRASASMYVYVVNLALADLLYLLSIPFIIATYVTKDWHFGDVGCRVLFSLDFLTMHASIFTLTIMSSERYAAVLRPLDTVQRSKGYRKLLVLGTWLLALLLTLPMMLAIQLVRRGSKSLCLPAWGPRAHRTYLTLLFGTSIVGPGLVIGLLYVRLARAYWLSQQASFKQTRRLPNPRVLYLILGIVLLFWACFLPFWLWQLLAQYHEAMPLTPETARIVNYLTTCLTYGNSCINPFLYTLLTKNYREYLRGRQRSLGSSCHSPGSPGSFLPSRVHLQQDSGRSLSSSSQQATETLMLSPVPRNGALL
In words: Increase in the redness or skin temperature of the rat ear after administration of the substance. It counts as in vivo. On the procedure: (§1) The examples described herein used conscious rat as the testing animal, although similar results were also observed from anesthetized rats. Other animals can also be utilized following similar procedures. All procedures involving animals were conducted in an animal facility fully accredited by the American Association for Assessment and Accreditation of Laboratory Animal Care (AAALAC) and in accordance with The Guide for the Care and Use of Laboratory Animals (NIH). Protocols were approved by the Internal Animal Care and Use Committee (IACUC). Results are expressed as mean±s.e. mean. Comparisons between groups were assessed using two-sided Student's t-test. P<0.05 was considered significant.
(§2) Unless otherwise indicated, Rat U-II was obtained from SIGMA (U-7507, St Louis, Mo.). Urantide was purchased from Peptide International (PUT-3639-P1, Louisville, Ky.). Experiments were performed with male, Sprague-Dawley rats (Charles River, Wilmington, Mass.), weighing 250-350 g.
(§3) Rats were acclimated at 18° C. for at least 1 hour before U-II administration. The room temperature was kept at 18° C. throughout ear surface temperature measurements. Rat U-II suspended in sterile saline (0.1 ml) at various concentrations was administered to a conscious rat via unilateral […] (i.p.) injection over a period of 5 second. In the serial dose experiment, serial doses of U-II were administered to a conscious rat via subcutaneous (s.c.) routes. The lateral inner ear surface temperature of the rat was measured using a Raytek High Performance Infra-red Thermometer (Raytek Corp., Santa Cruz, Calif.) at different time points.
(§4) Urantide (PUT-3639-P1, Peptide International) was administered or co-administered with U-II (3 μg/kg) to a rat via subcutaneous administration. The lateral inner ear surface temperature of the rat was measured using a Raytek High Performance Infra-red Thermometer at different time points, wherein the time point of Urantide administration or Urantide and U-II co-administration was marked as 0 minute.
(§5) The nitric oxide syntheses inhibitor, N^g nitro-L-arginine methylester (L-NAME), or prostacyclin inhibitor, indomethacin, was administered to the rat alone or in combination with U-II. L-NAME (N5751, Sigma, 100 mg/kg) suspended in saline was administered to a rat via […] (i.p.) administration 4 hour prior to injecting the rat with the U-II. Indomethacin (17378, Sigma, 30 mg/kg) suspended in carboxymethylcellulose was administered to a rat via p.o. (per os, L—by mouth or orally) 2 hours prior to injecting the rat with the U-II. […] The lateral inner ear surface temperature of the rat was measured using a Raytek High Performance Infra-red Thermometer at different time points, wherein the time point of U-II injection was marked as 0 minutes.

Assay [2] concerns the target T1, urotensin II receptor. In words: Inhibition of U-II induced increase in the redness or skin temperature of the rat ear. It counts as in vivo. As to conditions: 150 μg/kg co-administered s.c. with U-II 3 μg/kg. The method, then: as §4
(§6) The nitric oxide syntheses inhibitor, N^g nitro-L-arginine methylester (L-NAME), or prostacyclin inhibitor, indomethacin, was administered to the rat alone or in combination with U-II. L-NAME (N5751, Sigma, 100 mg/kg) suspended in saline was administered to a rat via […] (i.p.) administration 4 hour prior to injecting the rat with the U-II. Indomethacin (17378, Sigma, 30 mg/kg) suspended in carboxymethylcellulose was administered to a rat via p.o. (per os, L—by mouth or orally) 2 hours prior to injecting the rat with the U-II. Dexamethasone (D1756, Sigma, 8 mg/kg) suspended in saline was administered to a rat via i.p. 2 hours prior to injecting the rat with the U-II. After taking a pre-dose or baseline ear surface temperature, 0.1 ml of U-II at various concentrations formulated in sterile normal saline was injection subcutaneously to the mid-scapular region of the rat. The lateral inner ear surface temperature of the rat was measured using a Raytek High Performance Infra-red Thermometer at different time points, wherein the time point of U-II injection was marked as 0 minutes.

Assay [3] concerns panel of receptor/ion channels. Description: Binding to a panel of receptor/ion channels. As to conditions: data not shown.
The target in a further assay is T2, UT receptor (Rattus norvegicus, UniProt P49684).
T2 construct: pure UT receptor antagonist in rat aorta vasoconstriction assays; host or cells: rat aorta tissue
T2 sequence (P49684 1-386): T1 sequence (P49684 1-386)
The conditions noted are these: competitive UT receptor antagonist, rat aorta; cited from earlier work.

Another assay has as its target T3, human UT receptor (Homo sapiens, UniProt Q9UKP6).
T3 construct: host or cells: CHO cells over-expressing the human UT receptor
T3 sequence (Q9UKP6 1-389): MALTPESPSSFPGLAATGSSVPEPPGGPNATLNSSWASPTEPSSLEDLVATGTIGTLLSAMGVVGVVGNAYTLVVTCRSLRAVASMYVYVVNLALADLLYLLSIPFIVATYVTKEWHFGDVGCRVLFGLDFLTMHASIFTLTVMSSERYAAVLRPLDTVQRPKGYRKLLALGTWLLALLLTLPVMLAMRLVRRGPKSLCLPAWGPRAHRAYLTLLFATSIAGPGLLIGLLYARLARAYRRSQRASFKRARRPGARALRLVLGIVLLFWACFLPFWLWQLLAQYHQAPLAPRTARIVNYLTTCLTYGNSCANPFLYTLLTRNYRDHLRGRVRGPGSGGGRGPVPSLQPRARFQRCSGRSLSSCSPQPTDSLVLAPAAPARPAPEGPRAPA
The conditions noted are these: CHO cells over-expressing the human UT receptor; cited from earlier work.

For assay [4] the following is noted: rat, nicotinic acid administration; cited from earlier work.
In assay [5] the test system is urotensin II receptor. Description: Increase in the redness or skin temperature of the rat ear after administration of the substance. It counts as in vivo. As to conditions: data not shown. The method, then:
as §1, §2, §3, §4, §5

Assay [6] has as its system urotensin II receptor. In words: Inhibition of U-II induced increase in the redness or skin temperature of the rat ear. The assay is classed as in vivo. On the procedure: as §4, §6

As to `CC(C)[C@H](NC(=O)[C@@H]1CSSC(C)(C)[C@H](NC(=O)[C@@H](N)CC(=O)O)C(=O)N[C@@H](Cc2ccccc2)C(=O)N[C@H](Cc2c[nH]c3ccccc23)C(=O)N[C@@H](CCCN)C(=O)N[C@@H](Cc2ccc(O)cc2)C(=O)N1)C(=O)O` [urantide] (HELM PEPTIDE1{D.[Pen].F.[dW].[Orn].Y.C.V}$PEPTIDE1,PEPTIDE1,2:R3-7:R3$$$V2.0), on urotensin II receptor [1] (150 μg/kg s.c.), the “ear flush or ear surface temperature change, substance alone” value is given as “caused no ear flush or ear surface temperature changes”. The “effect on U-II induced ear flush or increase of ear temperature” value at urotensin II receptor [2] is recorded as “blocked”. The “binding activity to proteins within a panel of receptor/ion channels” value in assay [3] is reported as “minimal binding activity”. For the same molecule, the pA2 on UT receptor is 8.3. For the same molecule, the “activity at human UT receptor” value on human UT receptor is “potent U-II agonist”.
With `O=C(O)c1cccnc1` [nicotinic acid], the “increase of the ear temperature” value in assay [4] is “less than 1.5 °C”.
`COC(=O)[C@@H](N)CCCNC(=N)N[N+](=O)[O-]` [L-NAME, N^g nitro-L-arginine methylester]: the “ear flush or ear surface temperature change, substance alone” value in the assay on urotensin II receptor [5] (100 mg/kg i.p.) is given as “caused no ear flush or ear surface temperature change”. Besides, the “effect on U-II induced ear flush or increase of ear temperature” value with urotensin II receptor [6] (100 mg/kg i.p. 4 hour prior to U-II 3 μg/kg s.c., 100 mg/kg) is listed as “blocked; also recorded: markedly inhibited”.
For the molecule `COc1ccc2c(c1)c(CC(=O)O)c(C)n2C(=O)c1ccc(Cl)cc1` [indomethacin], the “ear flush or ear surface temperature change, substance alone” value with urotensin II receptor [5] (30 mg/kg p.o.) was “caused no ear flush or ear surface temperature change”. Also, the “effect on U-II induced ear flush or increase of ear temperature” value with urotensin II receptor [6] (30 mg/kg p.o. 2 hours prior to U-II 3 μg/kg s.c., 30 mg/kg) was “blocked”; in the assay with urotensin II receptor [6] (30 mg/kg p.o. 2 hours prior to U-II 3 μg/kg s.c., listed as Indomethacin, 30 mg/kg) it was “abolished”.
In the case of “URP: U-II-related peptide, SEQ ID NO: 10, ACFWKYCV, intramolecular disulfide bond (PUT-4408-V, Peptide International)”, the “redness or skin temperature of the rat after administration” value with urotensin II receptor [1] (URP 100 μg/kg s.c.) is “induced an increase in skin temperature; also recorded: induced an increase in the redness or skin temperature”.
